Results from ChEMBL document CHEMBL3044982, “Cross-resistance, inheritance and biochemical mechanisms of imidacloprid resistance in B-biotype Bemisia tabaci” (2009).
In brackets after ≈: the same amount, converted by molar mass.

Columns and labels:
Assay type in all cases: functional
Bemisia tabaci [1] = assay: Resistance factor, ratio of LC50 for adult female Bemisia tabaci B-biotype NJ-Imi (sweet potato whitefly) (G30) to LC50 for adult female B-type Bemisia tabaci NJ
Bemisia tabaci [2] = assay: Insecticidal activity against adult female imidacloprid-resistant Bemisia tabaci B-biotype NJ-Imi (sweet potato whitefly) (G30) in cotton leaf discs assessed as mortality treated for 10 secs prior to adult infestation measured after 72 hr by leaf-dip bioassay; settings: foliar
Bemisia tabaci [3] = assay: Insecticidal activity against adult female imidacloprid-susceptible Bemisia tabaci B-biotype NJ (sweet potato whitefly) in cotton leaf discs assessed as mortality treated for 10 secs prior to adult infestation measured after 72 hr by leaf-dip bioassay; settings: foliar
Bemisia tabaci [4] = assay: Resistance factor, ratio of LC50 for adult female Bemisia tabaci B-biotype NJ-Imi (sweet potato whitefly) (G15) to LC50 for adult female B-type Bemisia tabaci NJ
Bemisia tabaci [5] = assay: Insecticidal activity against adult female imidacloprid-resistant Bemisia tabaci B-biotype NJ-Imi (sweet potato whitefly) (G15) in cotton leaf discs assessed as mortality treated for 10 secs prior to adult infestation measured after 72 hr by leaf-dip bioassay; settings: foliar
Bemisia tabaci [6] = assay: (§1) Insecticidal activity against adult female Bemisia tabaci B-biotype NJ-Imi (sweet potato whitefly) (G30) in cotton leaf discs assessed as mortality treated for 10 secs prior to adult infestation measured after 72 hr by leaf-dip bioassay in presence of 100 mg/L esterase inhibitor, DEF; settings: foliar
Bemisia tabaci [7] = assay: (§2) Insecticidal activity against adult female Bemisia tabaci B-biotype NJ-Imi (sweet potato whitefly) (G15) in cotton leaf discs assessed as mortality treated for 10 secs prior to adult infestation measured after 72 hr by leaf-dip bioassay in presence of 100 mg/L esterase inhibitor, DEF; settings: foliar
Bemisia tabaci [8] = assay: (§3) Insecticidal activity against female F1' progeny generated from reciprocal cross between male B-biotype Bemisia tabaci NJ-Imi (sweet potato whitefly) with female B-biotype Bemisia tabaci NJ in cotton leaf discs assessed as mortality treated for 10 secs prior to adult infestation measured after 72 hr by leaf-dip bioassay; settings: foliar
Bemisia tabaci [9] = assay: Synergistic ratio of LC50 for adult female Bemisia tabaci B-biotype NJ-Imi (sweet potato whitefly) (G15)to LC50 for adult female Bemisia tabaci B-biotype NJ in presence of 100 mg/L esterase inhibitor, DEF
Bemisia tabaci [10] = assay: as §3, with “F1” for “F1'”, “female” for “male B-biotype”, “tabaci B-biotype” for “tabaci”, “male” for “female B-biotype”; settings: foliar
Bemisia tabaci [11] = assay: Synergistic ratio of LC50 for adult female Bemisia tabaci B-biotype NJ-Imi (sweet potato whitefly) (G15) to LC50 for adult female Bemisia tabaci B-biotype NJ in presence of 100 mg/L GSH depleter, DEM
Bemisia tabaci [12] = assay: Synergistic ratio of LC50 for adult female Bemisia tabaci B-biotype NJ (sweet potato whitefly) to LC50 for adult female Bemisia tabaci B-biotype NJ in presence of 100 mg/L GSH depleter, DEM
Bemisia tabaci [13] = assay: Resistance factor, ratio of LC50 for female Bemisia tabaci B-biotype NJ-Imi F1 (sweet potato whitefly) progeny to LC50 for adult female B-type Bemisia tabaci NJ
Bemisia tabaci [14] = assay: as §1, with “cytochrome P450 monoxygenase” for “esterase”, “PBO” for “DEF”; settings: foliar
Bemisia tabaci [15] = assay: Synergistic ratio of LC50 for adult female Bemisia tabaci B-biotype NJ (sweet potato whitefly) to LC50 for adult female Bemisia tabaci B-biotype NJ in presence of 100 mg/L cytochrome P450 monoxygenase inhibitor, PBO
Bemisia tabaci [16] = assay: Synergistic ratio of LC50 for adult female Bemisia tabaci B-biotype NJ-Imi (sweet potato whitefly) (G30) to LC50 for adult female Bemisia tabaci B-biotype NJ in presence of 100 mg/L cytochrome P450 monoxygenase inhibitor, PBO
Bemisia tabaci [17] = assay: Synergistic ratio of LC50 for adult female Bemisia tabaci B-biotype NJ-Imi (sweet potato whitefly) (G30)to LC50 for adult female Bemisia tabaci B-biotype NJ in presence of 100 mg/L esterase inhibitor, DEF
Bemisia tabaci [18] = assay: Insecticidal activity against adult female Bemisia tabaci B-biotype NJ-Imi (sweet potato whitefly) (G30) in cotton leaf discs assessed as mortality treated for 10 secs prior to adult infestation measured after 72 hr by leaf-dip bioassay in presence of 100 mg/L GSH depleter, DEM; settings: foliar
Bemisia tabaci [19] = assay: Synergistic ratio of LC50 for adult female Bemisia tabaci B-biotype NJ (sweet potato whitefly) to LC50 for adult female Bemisia tabaci B-biotype NJ in presence of 100 mg/L esterase inhibitor, DEF
Bemisia tabaci [20] = assay: Synergistic ratio of LC50 for adult female Bemisia tabaci B-biotype NJ-Imi (sweet potato whitefly) (G30) to LC50 for adult female Bemisia tabaci B-biotype NJ in presence of 100 mg/L GSH depleter, DEM
Bemisia tabaci [21] = assay: Resistance factor, ratio of LC50 for adult male Bemisia tabaci B-biotype NJ-Imi (sweet potato whitefly) (G30) to LC50 for adult female B-type Bemisia tabaci NJ
Bemisia tabaci [22] = assay: Insecticidal activity against adult female Bemisia tabaci B-biotype NJ-Imi (sweet potato whitefly) (G15) in cotton leaf discs assessed as mortality treated for 10 secs prior to adult infestation measured after 72 hr by leaf-dip bioassay in presence of 100 mg/L GSH depleter, DEM; settings: foliar
Bemisia tabaci [23] = assay: Insecticidal activity against adult female Bemisia tabaci B-biotype NJ (sweet potato whitefly) in cotton leaf discs assessed as mortality treated for 10 secs prior to adult infestation measured after 72 hr by leaf-dip bioassay in presence of 100 mg/L GSH depleter, DEM; settings: foliar
Bemisia tabaci [24] = assay: as §2, with “cytochrome P450 monoxygenase” for “esterase”, “PBO” for “DEF”; settings: foliar
Bemisia tabaci [25] = assay: Insecticidal activity against adult female Bemisia tabaci B-biotype NJ (sweet potato whitefly) in cotton leaf discs assessed as mortality treated for 10 secs prior to adult infestation measured after 72 hr by leaf-dip bioassay in presence of 100 mg/L esterase inhibitor, DEF; settings: foliar
Bemisia tabaci [26] = assay: Insecticidal activity against adult male Bemisia tabaci B-biotype NJ-Imi (sweet potato whitefly) (G30) in cotton leaf discs assessed as mortality treated for 10 secs prior to adult infestation measured after 72 hr by leaf-dip bioassay; settings: foliar
Bemisia tabaci [27] = assay: Insecticidal activity against adult female Bemisia tabaci B-biotype NJ (sweet potato whitefly) in cotton leaf discs assessed as mortality treated for 10 secs prior to adult infestation measured after 72 hr by leaf-dip bioassay in presence of 100 mg/L cytochrome P450 monoxygenase inhibitor, PBO; settings: foliar
Bemisia tabaci [28] = assay: Resistance factor, ratio of LC50 for female B-biotype Bemisia tabaci NJ-Imi F1' (sweet potato whitefly) progeny to LC50 for adult female B-type Bemisia tabaci NJ
Bemisia tabaci [29] = assay: Synergistic ratio of LC50 for adult female Bemisia tabaci B-biotype NJ-Imi (sweet potato whitefly) (G15) to LC50 for adult female Bemisia tabaci B-biotype NJ in presence of 100 mg/L cytochrome P450 monoxygenase inhibitor, PBO

C/C(=N\C#N)N(C)Cc1ccc(Cl)nc1 [ACETAMIPRID]
RatioLC50 (Bemisia tabaci [1]): 143 | LC50 (Bemisia tabaci [2]): 186 µg/mL (≈ 835 µM) | LC50 (Bemisia tabaci [3]): 1.3 µg/mL (≈ 5.84 µM) | RatioLC50 (Bemisia tabaci [4]): 49 | LC50 (Bemisia tabaci [5]): 63 µg/mL (≈ 283 µM)

CN(C)C(CSS(=O)(=O)[O-])CSS(=O)(=O)O.[Na+] [MONOSULTAP]
RatioLC50 (Bemisia tabaci [1]): 7 | LC50 (Bemisia tabaci [2]): 294 µg/mL | LC50 (Bemisia tabaci [3]): 43.9 µg/mL | RatioLC50 (Bemisia tabaci [4]): 7 | LC50 (Bemisia tabaci [5]): 297 µg/mL

CN(C)C(CSC(N)=O)CSC(N)=O [CARTAP]
RatioLC50 (Bemisia tabaci [1]): 11 | LC50 (Bemisia tabaci [2]): 17.4 µg/mL (≈ 73.3 µM) | LC50 (Bemisia tabaci [3]): 1.55 µg/mL (≈ 6.53 µM)

N#C/N=C1\SCCN1Cc1ccc(Cl)nc1 [THIACLOPRID]
RatioLC50 (Bemisia tabaci [1]): 37 | LC50 (Bemisia tabaci [2]): 37.3 µg/mL (≈ 148 µM) | LC50 (Bemisia tabaci [3]): 1.02 µg/mL (≈ 4.04 µM)

CC1(C)C(C=C(Cl)Cl)C1C(=O)OC(C#N)c1cccc(Oc2ccccc2)c1 (stereo not drawn) [ALPHA-CYPERMETHRIN]
RatioLC50 (Bemisia tabaci [1]): 1 | LC50 (Bemisia tabaci [2]): 263 µg/mL (≈ 632 µM) | LC50 (Bemisia tabaci [3]): 226 µg/mL (≈ 543 µM) | RatioLC50 (Bemisia tabaci [4]): 1 | LC50 (Bemisia tabaci [5]): 230 µg/mL (≈ 552 µM)

CC[C@H](C)[C@H]1O[C@]2(C=C[C@@H]1C)C[C@@H]1C[C@@H](C/C=C(\C)[C@@H](O[C@H]3C[C@H](OC)[C@@H](O[C@H]4C[C@H](OC)[C@@H](O)[C@H](C)O4)[C@H](C)O3)[C@@H](C)/C=C/C=C3\CO[C@@H]4[C@H](O)C(C)=C[C@@H](C(=O)O1)[C@]34O)O2.CO[C@H]1C[C@H](O[C@H]2[C@H](C)O[C@@H](O[C@@H]3/C(C)=C/C[C@@H]4C[C@@H](C[C@]5(C=C[C@H](C)[C@@H](C(C)C)O5)O4)OC(=O)[C@@H]4C=C(C)[C@@H](O)[C@H]5OC/C(=C\C=C\[C@@H]3C)[C@]54O)C[C@@H]2OC)O[C@@H](C)[C@@H]1O [ABAMECTIN]
RatioLC50 (Bemisia tabaci [1]): 1 | LC50 (Bemisia tabaci [2]): 0.92 µg/mL | LC50 (Bemisia tabaci [3]): 0.8 µg/mL

O=[N+]([O-])/N=C1\NCCN1Cc1ccc(Cl)nc1 [IMIDACLOPRID]
LC50 (Bemisia tabaci [6]): 371 µg/mL | RatioLC50 (Bemisia tabaci [1]): 490 | LC50 (Bemisia tabaci [7]): 94 µg/mL | LC50 (Bemisia tabaci [8]): 28.6 µg/mL (≈ 112 µM) | RatioLC50 (Bemisia tabaci [9]): 2.7 | LC50 (Bemisia tabaci [10]): 30.9 µg/mL (≈ 121 µM) | RatioLC50 (Bemisia tabaci [11]): 0.9 | RatioLC50 (Bemisia tabaci [12]): 0.8 | LC50 (Bemisia tabaci [2]): 485 µg/mL (≈ 1900 µM) | RatioLC50 (Bemisia tabaci [13]): 31 | LC50 (Bemisia tabaci [14]): 231 µg/mL | RatioLC50 (Bemisia tabaci [15]): 1.1 | RatioLC50 (Bemisia tabaci [16]): 2.1 | RatioLC50 (Bemisia tabaci [17]): 1.3 | LC50 (Bemisia tabaci [18]): 357 µg/mL | RatioLC50 (Bemisia tabaci [19]): 2.5 | RatioLC50 (Bemisia tabaci [20]): 1.4 | RatioLC50 (Bemisia tabaci [21]): 415 | LC50 (Bemisia tabaci [22]): 273 µg/mL | LC50 (Bemisia tabaci [23]): 1.22 µg/mL | LC50 (Bemisia tabaci [24]): 102 µg/mL | LC50 (Bemisia tabaci [25]): 0.4 µg/mL | LC50 (Bemisia tabaci [26]): 411 µg/mL (≈ 1610 µM) | LC50 (Bemisia tabaci [3]): 0.99 µg/mL (≈ 3.87 µM) | LC50 (Bemisia tabaci [27]): 0.91 µg/mL | RatioLC50 (Bemisia tabaci [28]): 29 | RatioLC50 (Bemisia tabaci [29]): 2.5 | RatioLC50 (Bemisia tabaci [4]): 257 | LC50 (Bemisia tabaci [5]): 254 µg/mL (≈ 993 µM)

CN1COCN(Cc2cnc(Cl)s2)/C1=N\[N+](=O)[O-] [THIAMETHOXAM]
RatioLC50 (Bemisia tabaci [1]): 243 | LC50 (Bemisia tabaci [2]): 289 µg/mL (≈ 991 µM) | LC50 (Bemisia tabaci [3]): 1.19 µg/mL (≈ 4.08 µM) | RatioLC50 (Bemisia tabaci [4]): 92 | LC50 (Bemisia tabaci [5]): 110 µg/mL (≈ 377 µM)

CCN(Cc1ccc(Cl)nc1)/C(=C/[N+](=O)[O-])NC [NITENPYRAM]
RatioLC50 (Bemisia tabaci [1]): 94 | LC50 (Bemisia tabaci [2]): 93 µg/mL (≈ 344 µM) | LC50 (Bemisia tabaci [3]): 0.99 µg/mL (≈ 3.66 µM)
